Source: patent US20100204224A1, “AZACYCLIC COMPOUNDS AS INHIBITORS OF SENSORY NEURONE SPECIFIC SODIUM CHANNELS” (priority 2005, published 2010)

These compounds were tested against T1, human Nav1.8 (hNav1.8) ion channel (Homo sapiens, UniProt Q9Y5Y9) (assay: Inhibition of human Nav1.8 stably expressed in SH-SY-5Y cells (membrane potential dye fluorescence assay)). Details: SH-SY-5Y hNav1.8 cells; FLIPR membrane potential dye; 10 μM pyrethroid, 250 nM TTX; test concentration range 100 μM-0.05 μM; read-out: hNav1.8 IC50.
T1 construct: expressed in transfected cells
T1 sequence (Q9Y5Y9 whole entry): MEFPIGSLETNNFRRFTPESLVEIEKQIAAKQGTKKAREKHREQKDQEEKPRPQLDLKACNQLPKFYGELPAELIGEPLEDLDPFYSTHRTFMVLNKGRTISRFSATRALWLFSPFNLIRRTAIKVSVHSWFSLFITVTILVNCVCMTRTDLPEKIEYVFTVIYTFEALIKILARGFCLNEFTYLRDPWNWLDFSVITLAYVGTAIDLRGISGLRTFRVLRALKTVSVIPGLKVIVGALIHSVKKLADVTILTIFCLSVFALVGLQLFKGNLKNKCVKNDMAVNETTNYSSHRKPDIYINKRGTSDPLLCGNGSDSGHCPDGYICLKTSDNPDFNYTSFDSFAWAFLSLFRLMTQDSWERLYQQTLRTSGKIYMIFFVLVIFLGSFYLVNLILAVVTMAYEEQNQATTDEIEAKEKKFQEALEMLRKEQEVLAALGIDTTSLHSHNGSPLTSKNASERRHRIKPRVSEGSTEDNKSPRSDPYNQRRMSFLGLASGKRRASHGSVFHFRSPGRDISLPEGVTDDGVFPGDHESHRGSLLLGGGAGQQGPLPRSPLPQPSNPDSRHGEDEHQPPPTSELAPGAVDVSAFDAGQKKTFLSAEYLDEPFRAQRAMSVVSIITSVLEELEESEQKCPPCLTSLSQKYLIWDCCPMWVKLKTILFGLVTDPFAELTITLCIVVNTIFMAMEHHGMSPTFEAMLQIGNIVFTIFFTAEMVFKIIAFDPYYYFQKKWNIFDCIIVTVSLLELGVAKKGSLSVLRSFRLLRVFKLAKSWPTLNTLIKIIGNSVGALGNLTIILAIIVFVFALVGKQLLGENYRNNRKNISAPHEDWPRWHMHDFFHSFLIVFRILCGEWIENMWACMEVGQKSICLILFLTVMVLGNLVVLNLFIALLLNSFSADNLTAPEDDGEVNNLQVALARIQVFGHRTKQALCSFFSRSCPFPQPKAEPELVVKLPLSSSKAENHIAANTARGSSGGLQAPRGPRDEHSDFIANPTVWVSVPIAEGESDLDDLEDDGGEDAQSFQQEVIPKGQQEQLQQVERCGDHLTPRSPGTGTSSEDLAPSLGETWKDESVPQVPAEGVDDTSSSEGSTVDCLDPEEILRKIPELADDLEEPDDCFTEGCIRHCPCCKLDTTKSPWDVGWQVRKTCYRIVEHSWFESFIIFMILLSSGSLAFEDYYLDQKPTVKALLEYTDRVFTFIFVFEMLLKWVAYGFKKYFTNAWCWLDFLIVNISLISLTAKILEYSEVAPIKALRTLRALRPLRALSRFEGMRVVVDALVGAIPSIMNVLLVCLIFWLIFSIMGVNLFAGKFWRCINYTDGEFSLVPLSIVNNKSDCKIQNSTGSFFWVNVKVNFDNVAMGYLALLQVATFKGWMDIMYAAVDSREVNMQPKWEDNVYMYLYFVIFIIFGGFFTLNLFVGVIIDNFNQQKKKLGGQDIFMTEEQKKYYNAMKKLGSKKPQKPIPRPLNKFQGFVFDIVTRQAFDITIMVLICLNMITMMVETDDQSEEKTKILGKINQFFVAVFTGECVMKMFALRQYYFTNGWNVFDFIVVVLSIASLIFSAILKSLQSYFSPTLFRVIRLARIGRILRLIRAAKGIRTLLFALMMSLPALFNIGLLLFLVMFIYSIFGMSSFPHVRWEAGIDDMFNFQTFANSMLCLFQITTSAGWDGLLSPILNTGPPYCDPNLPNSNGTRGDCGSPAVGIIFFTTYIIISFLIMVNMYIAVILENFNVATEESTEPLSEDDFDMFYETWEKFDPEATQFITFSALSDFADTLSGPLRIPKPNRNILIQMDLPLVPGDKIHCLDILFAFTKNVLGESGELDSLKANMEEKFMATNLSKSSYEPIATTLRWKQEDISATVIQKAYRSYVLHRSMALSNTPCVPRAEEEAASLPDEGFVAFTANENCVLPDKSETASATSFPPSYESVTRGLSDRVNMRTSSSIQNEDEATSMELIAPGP
Type: cell-based
Experimental: Inhibition of Human Nav1.8 stably expressed in SH-SY-5Y Cells
A SH-SY-5Y neuroblastoma cell line stably expressing the human Nav1.8 (hNav1.8) ion channel was constructed. This cell line has been used to develop a medium to high throughput assay for determining the ability of test compounds to inhibit membrane depolarisation mediated via the hNav1.8 channel.
SH-SY-5Y hNav1.8 are grown in adherent monolayer culture using 50:50 Ham's F-12/EMEM tissue culture medium supplemented with 15% (v/v) foetal bovine serum; 2 mM L-glutamine, 1% NEAR and 600 μg·ml^−1 Geneticin sulphate. Cells are removed from the tissue culture flask using trypsin/EDTA and re-plated into black walled, clear bottom 96-well assay plates at 50,000 cells·well^−1 24 hours prior to assay.
On the day of assay the cell assay plates are washed to remove cell culture medium using a sodium free assay buffer (145 mM tetramethyl ammonium chloride; 2 mM calcium chloride; 0.8 mM magnesium chloride hexahydrate; 10 mM HEPES; 10 mM glucose; 5 mM potassium chloride, pH 7.4). Fluorescent membrane potential dye solution (FLIPR™ membrane potential dye, Molecular Devices Corporation), containing 10 μM of a pyrethroid to prevent channel inactivation and 250 nM tetrodotoxin (TTX) to reduce interference from TTX-sensitive sodium channels present in the cell line. Test compound, initially dissolved in dimethyl sulfoxide but further diluted in sodium free buffer, is added to achieve the final test concentration range of 100 μM-0.05 μM.
Cell plates are incubated for 30 minutes at room temperature to allow equilibration of dye and test compound. Plates are then transferred to a fluorescence plate reader for fluorescence measurement using an excitation wavelength of 530 nm whilst measuring fluorescence emission at 565 nm. Baseline fluorescence levels are first determined before the addition of a sodium containing buffer (220 mM sodium chloride; 2 mM calcium chloride; 0.8 mM magnesium chloride hexahydrate; 10 mM HEPES; 10 mM glucose; 5 mM potassium chloride. pH 7.4) to cause membrane depolarisation in those cells where channel block has not been effected (final sodium concentration=72.5 mM). Membrane depolarisation is registered by an increase in fluorescence emission at 565 nm.
The change in fluorescence seen in each test well upon the addition of sodium containing buffer is calculated relative to the baseline fluorescence for that well. This figure is then used for calculating the IC50 for each test compound.
With `CC(c1c(F)cccc1F)N1CC2CC1CN2C(=O)Nc1ccc(C(F)(F)F)cc1` (stereo not drawn) [Example 13, 5-[1-(2,6-Difluoro-phenyl)-ethyl]-2,5-diaza-bicyclo[2.2.1]heptane-2-carboxylic acid (4-trifluoromethyl-phenyl)-amide] the IC50 was 6.36 µM. `Cc1ccsc1C(C)N1CC2CC1CN2C(=O)Nc1ccc(Oc2ccccc2)cc1` (stereo not drawn) [Example 14, 5-[1-(3-Methyl-thiophen-2-yl)-ethyl]-2,5-diaza-bicyclo[2.2.1]heptane-2-carboxylic acid (4-phenoxy-phenyl)-amide] showed an IC50 of 0.9 µM. Compound `Cc1ccsc1C(C)N1CC2CC1CN2C(=O)Nc1ccc(C(F)(F)F)cc1` (stereo not drawn) [Example 15, 5-[1-(3-Methyl-thiophen-2-yl)-ethyl]-2,5-diaza-bicyclo[2.2.1]heptane-2-carboxylic acid (4-trifluoromethyl-phenyl)-amide] has an IC50 of 3.04 µM. For `CCOCCOCCOc1ccc(NC(=O)N2CC3CC2CN3C(C)c2ccccc2C)cc1` (stereo not drawn) [Example 16, 5-(1-o-Tolyl-ethyl)-2,5-diaza-bicyclo[2.2.1]heptane-2-carboxylic acid {4-[2-(2-ethoxy-ethoxy)-ethoxy]-phenyl}-amide], the IC50 was 25.6 µM. Compound `CCOCCOc1ccc(NC(=O)N2CC3CC2CN3C(C)c2ccccc2C)cc1` (stereo not drawn) [Example 17, 5-(1-o-Tolyl-ethyl)-2,5-diaza-bicyclo[2.2.1]heptane-2-carboxylic acid [4-(2-ethoxy-ethoxy)-phenyl]-amide] has an IC50 of 28 µM. With `COCCOCCOc1ccc(NC(=O)N2CC3CC2CN3C(C)c2ccccc2C)cc1` (stereo not drawn) [Example 18, 5-(1-o-Tolyl-ethyl)-2,5-diaza-bicyclo[2.2.1]heptane-2-carboxylic acid {4-[2-(2-methoxy-ethoxy)-ethoxy]-phenyl}-amide] the IC50 was no less than 30 µM. For `COCCOc1ccc(NC(=O)N2CC3CC2CN3C(C)c2ccccc2C)cc1` (stereo not drawn) [Example 19, 5-(1-o-Tolyl-ethyl)-2,5-diaza-bicyclo[2.2.1]heptane-2-carboxylic acid [4-(2-methoxy-ethoxy)-phenyl]-amide], the IC50 was no less than 30 µM. `C=CCOc1ccc(NC(=O)N2CC3CC2CN3C(C)c2ccccc2C)cc1` (stereo not drawn) [Example 20, 5-(1-o-Tolyl-ethyl)-2,5-diaza-bicyclo[2.2.1]heptane-2-carboxylic acid (4-allyloxy-phenyl)-amide] was tested, and the IC50 was 3.42 µM. `Cc1ccccc1C(C)N1CC2CC1CN2C(=O)Nc1ccc(OCCN(C)C)cc1` (stereo not drawn) [Example 21, 5-(1-o-Tolyl-ethyl)-2,5-diaza-bicyclo[2.2.1]heptane-2-carboxylic acid [4-(2-dimethylamino-ethoxy)-phenyl]-amide] gave an IC50 of 28.3 µM. In the case of `Cc1ccccc1C(C)N1CC2CC1CN2C(=O)Nc1ccc(OC2CCOCC2)cc1` (stereo not drawn) [Example 22, 5-(1-o-Tolyl-ethyl)-2,5-diaza-bicyclo[2.2.1]heptane-2-carboxylic acid [4-(tetrahydro-pyran-4-yloxy)-phenyl]-amide], the IC50 is reported as 18.9 µM. In the case of `Cc1ccccc1C(C)N1CC2CC1CN2C(=O)Nc1ccc(OCCN2CCCC2=O)cc1` (stereo not drawn) [Example 23, 5-(1-o-Tolyl-ethyl)-2,5-diaza-bicyclo[2.2.1]heptane-2-carboxylic acid {4-[2-(2-oxo-pyrrolidin-1-yl)-ethoxy]-phenyl}-amide], the IC50 is reported as no less than 30 µM. With `Cc1ccccc1C(C)N1CC2CC1CN2C(=O)Nc1ccc(OC2CCCC2)cc1` (stereo not drawn) [Example 24, 5-(1-o-Tolyl-ethyl)-2,5-diaza-bicyclo[2.2.1]heptane-2-carboxylic acid (4-cyclopentyloxy-phenyl)-amide] the IC50 was 0.89 µM. `Cc1ccccc1C(C)N1CC2CC1CN2C(=O)Nc1ccc(OCC2CCCCO2)cc1` (stereo not drawn) [Example 25, 5-(1-o-Tolyl-ethyl)-2,5-diaza-bicyclo[2.2.1]heptane-2-carboxylic acid [4-(tetrahydro-pyran-2-ylmethoxy)-phenyl]-amide] was tested, and the IC50 was 5.38 µM. In the case of `Cc1ccccc1C(C)N1CC2CC1CN2C(=O)Nc1ccc(OCC2CCCO2)cc1` (stereo not drawn) [Example 26, 5-(1-o-Tolyl-ethyl)-2,5-diaza-bicyclo[2.2.1]heptane-2-carboxylic acid [4-(tetrahydro-furan-2-ylmethoxy)-phenyl]-amide], the IC50 is reported as 16.7 µM. In the case of `COCCCOc1ccc(NC(=O)N2CC3CC2CN3C(C)c2ccccc2C)cc1` (stereo not drawn) [Example 27, 5-(1-o-Tolyl-ethyl)-2,5-diaza-bicyclo[2.2.1]heptane-2-carboxylic acid [4-(3-methoxy-propoxy)-phenyl]-amide], the IC50 is reported as 8.48 µM. `C=CCOC(=O)NCCOc1ccc(NC(=O)N2CC3CC2CN3C(C)c2ccccc2C)cc1` (stereo not drawn) [Example 28, [2-(4-{[5-(1-o-Tolyl-ethyl)-2,5-diaza-bicyclo[2.2.1]heptane-2-carbonyl]-amino}-phenoxy)-ethyl]-carbamic acid allyl ester] showed an IC50 of 4.89 µM. For `Cc1ccccc1C(C)N1CC2CC1CN2C(=O)Nc1ccc(Oc2ccccc2)cc1` (stereo not drawn) [Example 30, 5-(1-o-Tolyl-ethyl)-2,5-diaza-bicyclo[2.2.1]heptane-2-carboxylic acid (4-phenoxy-phenyl)-amide], the IC50 was 0.32 µM. For `Cc1ccccc1C(C)N1CC2CC1CN2C(=O)Nc1ccc(OCc2ccccc2)cc1` (stereo not drawn) [Example 31, 5-(1-o-Tolyl-ethyl)-2,5-diaza-bicyclo[2.2.1]heptane-2-carboxylic acid (4-benzyloxy-phenyl)-amide], the IC50 was 0.6 µM. In the case of `Cc1ccccc1C(C)N1CC2CC1CN2C(=O)Nc1ccc(Oc2ccccc2)cc1` (stereo not drawn) [Example 32, 5-(1-o-Tolyl-ethyl)-2,5-diaza-bicyclo[2.2.1]heptane-2-carboxylic acid (4-phenoxy-phenyl)-amide], the IC50 is reported as 0.71 µM. Compound `Cc1ccccc1C(C)N1CC2CC1CN2C(=O)Nc1ccc(OCc2ccccc2)cc1` (stereo not drawn) [Example 33, 5-(1-o-Tolyl-ethyl)-2,5-diaza-bicyclo[2.2.1]heptane-2-carboxylic acid (4-benzyloxy-phenyl)-amide] has an IC50 of 0.49 µM. For `Cc1ccccc1C(C)N1CC2CC1CN2C(=O)Nc1ccc(Cc2ccccc2)cc1` (stereo not drawn) [Example 34, 5-(1-o-Tolyl-ethyl)-2,5-diaza-bicyclo[2.2.1]heptane-2-carboxylic acid (4-benzyl-phenyl)-amide], the IC50 was 0.64 µM. For `Cc1ccccc1C(C)N1CC2CC1CN2C(=O)Nc1ccc(Cc2ccccc2)cc1` (stereo not drawn) [Example 35, 5-(1-o-Tolyl-ethyl)-2,5-diaza-bicyclo[2.2.1]heptane-2-carboxylic acid (4-benzyl-phenyl)-amide], the IC50 was 0.59 µM. With `Cc1ccccc1C(C)N1CC2CC1CN2C(=O)Nc1ccc(-c2ccccc2)cc1` (stereo not drawn) [Example 38, 5-(1-o-Tolyl-ethyl)-2,5-diaza-bicyclo[2.2.1]heptane-2-carboxylic acid biphenyl-4-ylamide] the IC50 was 1.44 µM. `Cc1ccccc1C(C)N1CC2CC1CN2C(=O)Nc1ccc(-c2ccccc2)cc1` (stereo not drawn) [Example 39, 5-(1-o-Tolyl-ethyl)-2,5-diaza-bicyclo[2.2.1]heptane-2-carboxylic acid biphenyl-4-ylamide] showed an IC50 of 1.06 µM. Work on `Cc1ccccc1C(C)N1CC2CC1CN2C(=O)Nc1ccc(OC2CCN(Cc3ccccc3)CC2)cc1` (stereo not drawn) [Example 40, 5-(1-o-Tolyl-ethyl)-2,5-diaza-bicyclo[2.2.1]heptane-2-carboxylic acid [4-(1-benzyl-piperidin-4-yloxy)-phenyl]-amide] yielded an IC50 of 2.01 µM. `Cc1ccccc1C(C)N1CC2CC1CN2C(=O)Nc1ccc(OCCN2CCCC2)cc1` (stereo not drawn) [Example 41, 5-(1-o-Tolyl-ethyl)-2,5-diaza-bicyclo[2.2.1]heptane-2-carboxylic acid [4-(2-pyrrolidin-1-yl-ethoxy)-phenyl]-amide] gave an IC50 of no less than 30 µM. `Cc1ccccc1C(C)N1CC2CC1CN2C(=O)Nc1ccc(OCCc2scnc2C)cc1` (stereo not drawn) [Example 42, 5-(1-o-Tolyl-ethyl)-2,5-diaza-bicyclo[2.2.1]heptane-2-carboxylic acid {4-[2-(4-methyl-thiazol-5-yl)-ethoxy]-phenyl}-amide] gave an IC50 of 2.1 µM. Work on `Cc1ccccc1C(C)N1CC2CC1CN2C(=O)Nc1ccc(OCCn2ccnc2)cc1` (stereo not drawn) [Example 43, 5-(1-o-Tolyl-ethyl)-2,5-diaza-bicyclo[2.2.1]heptane-2-carboxylic acid [4-(2-imidazol-1-yl-ethoxy)-phenyl]-amide] yielded an IC50 of no less than 30 µM.

Same assay, conditions: hNav1.8 IC50, SH-SY-5Y hNav1.8 cells; FLIPR membrane potential dye; 10 μM pyrethroid, 250 nM TTX; test concentration range 100 μM-0.05 μM
With `Cc1ccccc1C(C)N1CC2CC1CN2C(=O)Cc1ccc(Oc2ccccc2)cc1` (stereo not drawn) [Example 36, 2-(4-Phenoxy-phenyl)-1-[5-(1-o-tolyl-ethyl)-2,5-diaza-bicyclo[2.2.1]hept-2-yl]-ethanone] the IC50 was 0.81 µM. `Cc1ccccc1C(C)N1CC2CC1CN2C(=O)Cc1ccc(Oc2ccccc2)cc1` (stereo not drawn) [Example 37, 2-(4-Phenoxy-phenyl)-1-[5-(1-o-tolyl-ethyl)-2,5-diaza-bicyclo[2.2.1]hept-2-yl]-ethanone] was tested, and the IC50 was 0.96 µM.
